Test results: PMC3160846 (PLoS ONE, 2011)

Assays:
Type in all cases: cell-based, Human
MV4-11 cells = assay: Clonogenic assay, MV4-11
Protocol: (§1) Human lung adenocarcinoma A549 cells and NTUB1 bladder cancer cells were maintained in RPMI supplied with 10% fetal bovine serum. […] KB-derived MRP1-expressing cell line, KB-7D, was maintained in growth medium supplemented with 7 µM VP-16.
(§2) Two hundred cells in logarithmic growth phase were seeded in a 6-well plate. The cells were exposed to various concentrations of the test drugs for a three-generation period. At the end of the incubation period, cells were fixed and stained with 50% ethanol containing 0.5% methylene blue for 30 min. The plates were washed five times with water and allowed to air-dry. Colonies were countered manually. […] Each value represents the average of at least three independent experiments run in triplicates.

HT29 cells = assay: Clonogenic assay, HT29
Protocol: as §1, §2

OECM-1 cells = assay: Clonogenic assay, OECM-1
Protocol: as §1, §2

NTU0.017 cells = assay: Clonogenic assay, NTU0.017
Protocol: as §1, §2

IM9 cells = assay: Clonogenic assay, IM9
Protocol: as §1, §2

KB-VIN10 cells = assay: Clonogenic assay, KB-VIN10
Protocol: as §1, §2

KB-S15 cells = assay: Clonogenic assay, KB-S15
Protocol: as §1, §2

KB cells = assay: Clonogenic assay, KB
Protocol: as §1, §2

A549 cells = assay: Clonogenic assay, A549
Protocol: as §1, §2

NTUB1 cells = assay: Clonogenic assay, NTUB1
Protocol: as §1, §2

HONE-1 cells = assay: Clonogenic assay, HONE-1
Protocol: as §1, §2

IC50 (MV4-11 cells; Homo sapiens, MV4-11, leukemia, p53 mutant, MDR1 negative, read-out: IC50, anti-proliferative activity): 86 ± 11 nM
Fold difference as compare to the IC50 of BPR1K653 (MV4-11 cells; MV4-11): 17 fold
Fold difference as compare to the IC50 of BPR1K653 (HT29 cells; HT29): 4 fold
IC50 (HT29 cells; Homo sapiens, HT-29, HT29, colon, p53 mutant, MDR1 negative, read-out: IC50, anti-proliferative activity): 48 ± 8 nM
Fold difference as compare to the IC50 of BPR1K653 (OECM-1 cells; OECM-1): 5 fold
Fold difference as compare to the IC50 of BPR1K653 (IM9 cells; IM9): 113 fold
IC50 (KB-VIN10 cells; Homo sapiens, KB-VIN10, vincristine resistant, MDR1 ↑, read-out: IC50, anti-proliferative activity): > 25000 nM
IC50 (KB-S15 cells; Homo sapiens, KB-S15, paclitaxol resistant, MDR1 ↑, read-out: IC50, anti-proliferative activity): 4700 nM
Fold difference as compare to the IC50 of BPR1K653 (KB cells): 33 fold
Fold difference as compare to the IC50 of BPR1K653 (A549 cells; A549): 6 fold
IC50 (A549 cells; Homo sapiens, A549, lung, p53 wild-type, MDR1 negative, read-out: IC50, anti-proliferative activity): 56 ± 8 nM
Fold difference as compare to the IC50 of BPR1K653 (NTUB1 cells; NTUB1): 51 fold
Fold difference as compare to the IC50 of BPR1K653 (HONE-1 cells; HONE-1): 5 fold
SMILES: CO[C@@H](C(=O)N1Cc2n[nH]c(NC(=O)c3ccc(N4CCN(C)CC4)cc3)c2C1)c1ccccc1 [PHA-739358]
IC50 (OECM-1 cells; Homo sapiens, OECM1, OECM-1, oral, p53 mutant, MDR1 negative, read-out: IC50, anti-proliferative activity): 642 ± 68 nM
IC50 (NTU0.017 cells; Homo sapiens, NTU0.017, paclitaxol resistant, MDR1 ↑, read-out: IC50, anti-proliferative activity): > 50000 nM
Fold difference as compare to the IC50 in the respective parental cells (NTU0.017 cells; NTU0.017 vs NTUB1): > 123 fold
IC50 (IM9 cells; Homo sapiens, IM9, lymphoma, p53 wild-type, MDR1 negative, read-out: IC50, anti-proliferative activity): 450 ± 12 nM
Fold difference as compare to the IC50 in the respective parental cells (KB-VIN10 cells; KB-VIN10 vs KB): > 63 fold
Fold difference as compare to the IC50 in the respective parental cells (KB-S15 cells; KB-S15 vs KB): 12 fold
IC50 (KB cells; Homo sapiens, cervical, p53 wild-type, MDR1 negative (parental), read-out: IC50, anti-proliferative activity): 400 ± 100 nM
IC50 (NTUB1 cells; Homo sapiens, NTUB1, bladder, MDR1 negative (parental), read-out: IC50, anti-proliferative activity): 405 ± 134 nM
IC50 (HONE-1 cells; Homo sapiens, HONE1, HONE-1, oral, p53 mutant, MDR1 negative, read-out: IC50, anti-proliferative activity): 59 ± 16 nM
